Assay results: patent US20210115104A1, “AMYLIN ANALOGUES” (Zealand Pharma A/S, priority 2015, published 2021)
*1 amine or outer side, *2 acyl side, *3 side chain or, on linkers, in order; H or OH if unused. Where a SMILES comes first, the peptide text is derived from it. Bridges are numbered along the chain shown (N, C = ends). [ ]: non-standard residue; d: D form. The star is where a group is joined. C20 diacid = O=C(O)CCCCCCCCCCCCCCCCCCC(=O)*; γGlu = O=C(O)[C@H](CCC(=O)[*:2])N[*:1]; Hyp = O=C(O)[C@@H]1C[C@@H](O)CN1; NMeI = CC[C@H](C)[C@H](NC)C(=O)O; Aad = N[C@@H](CCCC(=O)O)C(=O)O; Sar = CNCC(=O)O

Assays:
[1] = target: T1, human calcitonin receptor (hCTR2) (Homo sapiens, UniProt P30988); assay: hCTR2 cAMP assay (AlphaScreen) in COS7 cells; format: cell-based; settings: cAMP induction, COS7 cells expressing hCTR2; Table 1; read-out: hCTR2 EC50
T1 construct: expressed in transfected cells
T1 sequence (P30988 25-474): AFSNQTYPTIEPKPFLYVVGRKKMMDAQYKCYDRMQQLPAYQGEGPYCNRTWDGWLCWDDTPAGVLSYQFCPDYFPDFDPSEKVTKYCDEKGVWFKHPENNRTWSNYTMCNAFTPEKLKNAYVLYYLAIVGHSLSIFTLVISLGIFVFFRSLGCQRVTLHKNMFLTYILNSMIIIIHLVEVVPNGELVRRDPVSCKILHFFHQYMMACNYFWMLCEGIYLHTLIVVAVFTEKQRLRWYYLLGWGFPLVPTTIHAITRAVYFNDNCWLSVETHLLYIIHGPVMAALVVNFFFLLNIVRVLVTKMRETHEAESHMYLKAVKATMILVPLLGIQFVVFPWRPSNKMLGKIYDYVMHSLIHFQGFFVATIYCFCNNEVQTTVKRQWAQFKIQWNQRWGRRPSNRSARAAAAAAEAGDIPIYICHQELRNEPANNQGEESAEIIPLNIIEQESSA
In short: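 Stable hCTR2 clone in RAMP-naïve COS7 cells stimulated 15 min at 37 °C with increasing peptide concentrations in Tyrode buffer pH 7.4 containing IBMX and 0.1% casein. cAMP in lysates measured by AlphaScreen; EC50 from 4-parameter logistic fit.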

[2] = target: T2, human amylin receptor 3 (hAMYR3), hCTR2 co-expressed with hRAMP3 (Homo sapiens, UniProt O60896+P30988); assay: hAMYR3 cAMP assay (AlphaScreen) in COS7 cells; format: cell-based; settings: cAMP induction, COS7 cells expressing hAMYR3; Table 1; read-out: hAMYR3 EC50
T2 construct: expressed in transfected cells
T2 sequence (P30988 25-474): T1 sequence (P30988 25-474)
T2 sequence (O60896 24-148 partner): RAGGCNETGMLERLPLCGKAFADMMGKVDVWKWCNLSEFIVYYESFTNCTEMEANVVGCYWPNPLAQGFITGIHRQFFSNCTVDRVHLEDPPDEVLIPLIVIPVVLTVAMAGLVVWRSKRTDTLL
In short: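 Stable COS7 clone co-expressing hCTR2 and hRAMP3 was exposed to increasing peptide concentrations in Tyrode buffer (pH 7.4) with 100 µM IBMX and 0.1% casein for 15 min at 37 °C. Lysate cAMP was measured by AlphaScreen; EC50 came from 4-parameter logistic fitting.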

[3] = Assessment of chemical stability (RP-HPLC normalized purity); format: physicochemical; settings: 7 days, 40° C., Table 1; for Normalized purity after 7 days, 40° C., pH 4: pH 4, 0.2 mg/ml; for Normalized purity after 7 days, 40° C., pH 6: pH 6, 0.2 mg/ml; for Normalized purity after 7 days, 40° C., pH 7.5: pH 7.5, 0.2 mg/ml; for Normalized purity after 7 days, 40° C., pH 9: pH 9, 0.2 mg/ml
In short: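 Peptides at 0.2 mg/ml in water adjusted to pH 4, 6, 7.5 or 9, incubated at 40° C for 7 days. Main-peak area-% by RP-HPLC (C8 ammonium formate or C18 TFA gradient, UV 220 nm), normalized to T=0 as 100.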

Row | Compound | EC50 [1] | EC50 [2] | Normalized purity after 7 days, 40° C., pH 4 [3] | Normalized purity after 7 days, 40° C., pH 6 [3] | Normalized purity after 7 days, 40° C., pH 7.5 [3] | Normalized purity after 7 days, 40° C., pH 9 [3]
1 | CC[C@H](C)[C@@H](C(=O)N[C@@H](CC(C)C)C(=O)N[C@@H](CO)C(=O)N[C@@H](CO)C(=O)N[C@H](C(=O)N[C@@H](CCC(=O)O)C(=O)N[C@H](C(=O)NCC(=O)N[C@@H](CO)C(=O)NCC(=O)N[C@H](C(=O)N1CCC[C@H]1C(N)=O)[C@@H](C)O)C(C)C)[C@@H](C)O)N(C)C(=O)[C@H](C)NC(=O)CN(C)C(=O)[C@H](Cc1ccccc1)NC(=O)[C@H](CO)NC(=O)[C@H](CO)NC(=O)[C@H](CCCNC(=N)N)NC(=O)[C@H](CCC(N)=O)NC(=O)[C@H](CC(C)C)NC(=O)[C@H](Cc1ccccc1)NC(=O)[C@H](CC(=O)O)NC(=O)[C@H](C)NC(=O)[C@H](CC(C)C)NC(=O)[C@H](CCCNC(=N)N)NC(=O)[C@H](CCC(N)=O)NC(=O)[C@@H](NC(=O)[C@H](C)NC(=O)[C@@H]1CSSC[C@H](NC(=O)[C@H](CCCNC(=N)N)NC(=O)CC[C@H](NC(=O)CCCCCCCCCCCCCCCCCCC(=O)O)C(=O)O)C(=O)N[C@@H](CC(N)=O)C(=O)N[C@@H]([C@@H](C)O)C(=O)N[C@@H](C)C(=O)N[C@@H]([C@@H](C)O)C(=O)N1)[C@@H](C)O [Compound 80, [19CD]-isoGlu-R-C( )-NTAT-C( )-ATQRLADFLQRSSF-Gly(Me)-A-Ile(Me)-LSSTEVGSGTP-NH2] ({C20 diacid-γGlu}-RCNTATCATQRLADFLQRSSF[Sar]A[NMeI]LSSTEVGSGTP-NH2; disulfide 2-7) | 130 pM | 280 pM | A (A = >90%) | A (A = >90%) | A (A = >90%) | A (A = >90%)
2 | CC[C@H](C)[C@@H](C(=O)N[C@@H](CC(C)C)C(=O)N[C@@H](CO)C(=O)N[C@@H](CO)C(=O)N[C@H](C(=O)N[C@@H](CCC(=O)O)C(=O)N[C@H](C(=O)NCC(=O)N[C@@H](CO)C(=O)NCC(=O)N[C@H](C(=O)N1C[C@H](O)C[C@H]1C(N)=O)[C@@H](C)O)C(C)C)[C@@H](C)O)N(C)C(=O)[C@H](C)NC(=O)CN(C)C(=O)[C@H](Cc1ccccc1)NC(=O)[C@H](CO)NC(=O)[C@H](CO)NC(=O)[C@H](CCCNC(=N)N)NC(=O)[C@H](CCC(N)=O)NC(=O)[C@H](CC(C)C)NC(=O)[C@H](Cc1ccccc1)NC(=O)[C@H](CC(=O)O)NC(=O)[C@H](C)NC(=O)[C@H](CC(C)C)NC(=O)[C@H](CCCNC(=N)N)NC(=O)[C@H](CCC(N)=O)NC(=O)[C@@H](NC(=O)[C@H](C)NC(=O)[C@@H]1CSSC[C@H](NC(=O)[C@H](CCCNC(=N)N)NC(=O)CC[C@H](NC(=O)CCCCCCCCCCCCCCCCCCC(=O)O)C(=O)O)C(=O)N[C@@H](CC(N)=O)C(=O)N[C@@H]([C@@H](C)O)C(=O)N[C@@H](C)C(=O)N[C@@H]([C@@H](C)O)C(=O)N1)[C@@H](C)O [Compound 81, [19CD]-isoGlu-R-C( )-NTAT-C( )-ATQRLADFLQRSSF-Gly(Me)-A-Ile(Me)-LSSTEVGSGT-Hyp-NH2] ({C20 diacid-γGlu}-RCNTATCATQRLADFLQRSSF[Sar]A[NMeI]LSSTEVGSGT[Hyp]-NH2; disulfide 2-7) | 100 pM | 230 pM | A (A = >90%) | A (A = >90%) | A (A = >90%) | A (A = >90%)
3 | CC[C@H](C)[C@@H](C(=O)N[C@@H](CC(C)C)C(=O)N[C@@H](CO)C(=O)N[C@@H](CO)C(=O)N[C@H](C(=O)N[C@@H](CCC(=O)O)C(=O)N[C@H](C(=O)NCC(=O)N[C@@H](CO)C(=O)N[C@@H](CC(N)=O)C(=O)N[C@H](C(=O)N1C[C@H](O)C[C@H]1C(N)=O)[C@@H](C)O)C(C)C)[C@@H](C)O)N(C)C(=O)[C@H](C)NC(=O)CN(C)C(=O)[C@H](Cc1ccccc1)NC(=O)[C@H](CO)NC(=O)[C@H](CO)NC(=O)[C@H](CCCNC(=N)N)NC(=O)[C@H](CCC(N)=O)NC(=O)[C@H](CC(C)C)NC(=O)[C@H](Cc1ccccc1)NC(=O)[C@H](CCCC(=O)O)NC(=O)[C@H](C)NC(=O)[C@H](CC(C)C)NC(=O)[C@H](CCCNC(=N)N)NC(=O)[C@H](CCC(N)=O)NC(=O)[C@@H](NC(=O)[C@H](C)NC(=O)[C@@H]1CSSC[C@H](NC(=O)[C@H](CCCNC(=N)N)NC(=O)CC[C@H](NC(=O)CCCCCCCCCCCCCCCCCCC(=O)O)C(=O)O)C(=O)N[C@@H](CC(N)=O)C(=O)N[C@@H]([C@@H](C)O)C(=O)N[C@@H](C)C(=O)N[C@@H]([C@@H](C)O)C(=O)N1)[C@@H](C)O [Compound 86, [19CD]-isoGlu-R-C( )-NTAT-C( )-ATQRLA-Aad-FLQRSSF-Gly(Me)-A-Ile(Me)-LSSTEVGSNT-Hyp-NH2] ({C20 diacid-γGlu}-RCNTATCATQRLA[Aad]FLQRSSF[Sar]A[NMeI]LSSTEVGSNT[Hyp]-NH2; disulfide 2-7) | 100 pM | 150 pM | A (A = >90%) | A (A = >90%) | A (A = >90%) | A (A = >90%)
4 | CC[C@H](C)[C@@H](C(=O)N[C@@H](CC(C)C)C(=O)N[C@@H](CO)C(=O)N[C@@H](CO)C(=O)N[C@H](C(=O)N[C@@H](CCC(=O)O)C(=O)N[C@H](C(=O)NCC(=O)N[C@@H](CO)C(=O)N[C@@H](CC(N)=O)C(=O)N[C@H](C(=O)N1CCC[C@H]1C(N)=O)[C@@H](C)O)C(C)C)[C@@H](C)O)N(C)C(=O)[C@H](C)NC(=O)CN(C)C(=O)[C@H](Cc1ccccc1)NC(=O)[C@H](CO)NC(=O)[C@H](CO)NC(=O)[C@H](CCCNC(=N)N)NC(=O)[C@H](CCC(N)=O)NC(=O)[C@H](CC(C)C)NC(=O)[C@H](Cc1ccccc1)NC(=O)[C@H](Cc1c[nH]cn1)NC(=O)[C@H](C)NC(=O)[C@H](CC(C)C)NC(=O)[C@H](CCCNC(=N)N)NC(=O)[C@H](CC(=O)O)NC(=O)[C@@H](NC(=O)[C@H](C)NC(=O)[C@@H]1CSSC[C@H](NC(=O)[C@H](CCCNC(=N)N)NC(=O)CC[C@H](NC(=O)CCCCCCCCCCCCCCCCCCC(=O)O)C(=O)O)C(=O)N[C@@H](CCC(N)=O)C(=O)N[C@@H]([C@@H](C)O)C(=O)N[C@@H](C)C(=O)N[C@@H]([C@@H](C)O)C(=O)N1)[C@@H](C)O [Compound 92, [19CD]-isoGlu-R-C( )-QTAT-C( )-ATDRLAHFLQRSSF-Gly(Me)-A-Ile(Me)-LSSTEVGSNTP-NH2] ({C20 diacid-γGlu}-RCQTATCATDRLAHFLQRSSF[Sar]A[NMeI]LSSTEVGSNTP-NH2; disulfide 2-7) | 100 pM | 220 pM | A (A = >90%) | A (A = >90%) | A (A = >90%) | A (A = >90%)
